From US9186354B2, “Pyrrolidine derived β3 adrenergic receptor agonists” (Merck Sharp & Dohme Corp., priority 2010, dated 2015)
Where two headings read alike, the source gives them in different places.

Experiments:
β3AR = biological target: T1, β3AR (Rattus norvegicus, UniProt P26255); settings: rats, intravenous administration, cited from earlier work
T1 construct: Following intravenous administration to rats; host or cells: live rats (endogenous receptor, bladder)

[1] = biological target: T2, human β3 adrenergic receptor (Homo sapiens, UniProt P13945); test: β3AR-cAMP functional assay in CHO cells stably transfected with cloned β3-adrenergic receptor (LANCE); format: cell-based
T2 construct: stably transfected with the cloned β-adrenergic receptor (β1, β2 or β3); expressed in transfected cells; host or cells: Chinese hamster ovary (CHO) cells, stably transfected
T2 sequence (P13945 whole entry): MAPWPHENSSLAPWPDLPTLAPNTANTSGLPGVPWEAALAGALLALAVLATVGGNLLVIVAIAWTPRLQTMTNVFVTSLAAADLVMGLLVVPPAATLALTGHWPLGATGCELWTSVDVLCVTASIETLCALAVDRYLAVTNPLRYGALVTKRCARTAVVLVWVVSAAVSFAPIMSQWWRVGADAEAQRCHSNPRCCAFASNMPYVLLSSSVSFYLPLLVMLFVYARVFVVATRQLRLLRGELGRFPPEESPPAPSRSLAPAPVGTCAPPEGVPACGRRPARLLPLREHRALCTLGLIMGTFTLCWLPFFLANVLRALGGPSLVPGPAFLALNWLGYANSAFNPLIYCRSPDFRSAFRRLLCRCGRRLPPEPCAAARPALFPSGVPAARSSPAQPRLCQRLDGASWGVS
Description: Functional Assay: cAMP production in response to ligand is measured according to Barton, et al. (1991, Agonist-induced desensitization of D2 dopamine receptors in human Y-79 retinoblastoma cells. Mol. Pharmacol. […]) modified as follows. cAMP production is measured using a homogenous time-resolved fluorescence resonance energy transfer immunoassay (LANCE™, Perkin Elmer) according to the manufacture's instructions. Chinese hamster ovary (CHO) cells, stably transfected with the cloned β-adrenergic receptor (β1, β2 or β3) are harvested after 3 days of subculturing. Harvesting of cells is done with Enzyme-free Dissociation Media (Specialty Media). Cells are then counted and resuspended in assay buffer (Hank's Balanced salt solution supplemented with 5 mM HEPES, […]) containing a phosphodiesterase inhibitor (IBMX, 0.6 mM). The reaction is initiated by mixing 6,000 cells in 6 μL with 6 μL Alexa Fluor labeled cAMP antibody (LANCE™ kit) which is then added to an assay well containing 12 μL of compound (diluted in assay buffer to 2× final concentration). The reaction proceeds for 30 minutes at room temperature and is terminated by the addition of 24 ul detection buffer (LANCE™ kit). The assay plate is then incubated for 1 hour at room temperature and time-resolved fluorescence measured on a Perkin Elmer Envision reader or equivalent. The unknown cAMP level is determined by comparing fluorescence levels to a cAMP standard curve.
The non-selective, full agonist […] ligand isoproterenol is used at all three receptors to determine maximal stimulation. The human β3 adrenergic receptor (AR) selective ligand (S)—N-[4-[2-[[2-hydroxy-3-(4-hydroxyphenoxy)propyl]amino]ethyl]-phenyl]-4-iodobenzenesulfonamide is used as a control in all assays. Isoproterenol is titrated at a final concentration in the assay of 10^−10 M to 10^−5 M and the selective ligand (S)—N-[4-[2-[[2-hydroxy-3-(4-hydroxyphenoxy)propyl]amino]ethyl]phenyl]-4-iodobenzenesulfonamide is titrated at the β3 receptor at concentration of 10^−10 M to 10^−5 M. Unknown ligands are titrated at all 3 β-adrenergic receptor subtypes at a final concentration in the assay of 10^−10 M to 10^−5 M to determine the EC50. The EC50 is defined as the concentration of compound that gives 50% activation of its own maximum.

[2] = biological target: T2, human β3 adrenergic receptor; test: as above; format: cell-based; settings: Table 1; determined with β3AR-cAMP assay, given as ranges; read-out: Human β3 Binding
[3] = cAMP production, CHO cells expressing human β3 AR, read-out: human β3 functional activity
[4] = Table 2, Beta-3 agonist in vitro functional assay, given as ranges, read-out: Human β3 Agonist Functional Activity

T1 sequence (P26255 whole entry): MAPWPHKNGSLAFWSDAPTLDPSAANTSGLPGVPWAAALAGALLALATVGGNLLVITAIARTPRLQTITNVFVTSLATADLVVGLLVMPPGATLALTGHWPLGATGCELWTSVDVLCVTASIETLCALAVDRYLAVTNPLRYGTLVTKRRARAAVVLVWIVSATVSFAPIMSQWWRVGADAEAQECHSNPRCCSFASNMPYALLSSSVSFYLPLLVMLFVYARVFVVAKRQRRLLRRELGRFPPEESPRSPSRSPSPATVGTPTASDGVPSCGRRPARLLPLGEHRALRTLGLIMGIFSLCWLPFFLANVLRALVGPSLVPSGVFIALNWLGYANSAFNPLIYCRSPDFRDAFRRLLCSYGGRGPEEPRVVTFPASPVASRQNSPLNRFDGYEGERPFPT

**Q.** Which bladder pressure (β3AR) does the source give for `C[C@H](Cc1ccc2c(c1)OC(C(=O)[O-])(C(=O)[O-])O2)NC[C@H](O)c1cccc(Cl)c1.[Na+].[Na+]` [CL316243] here?
**A.** reduces bladder pressure

**Q.** What about the “bladder capacity (cystometric studies)” value (β3AR; prolongation of micturition interval without increasing residual urine volume) of the same compound?
**A.** increases bladder capacity

**Q.** With `O=C(Nc1ccc(C[C@@H]2CC[C@H]([C@H](O)c3ccccc3)N2)cn1)[C@@H]1CCc2scnc21` [Example 1] as the compound, how does the EC50 [1, 3] read?
**A.** 20.4 nM

**Q.** With `O=C(Nc1ccc(C[C@@H]2CC[C@H]([C@H](O)c3ccccc3)N2)cn1)C1CCc2nccc(=O)n21` (stereo partly drawn) [Example 2, N-[5-({(2S, 5R)-5-[(R)-hydroxy(phenyl)methyl]pyrrolidin-2-yl}methyl)pyridin-2-yl]-4-oxo-4,6,7,8-tetrahydropyrrolo[1,2-a]pyrimidine-6-carboxamide] as the compound, how does the EC50 [2] read?
**A.** 11 to 100 nM

**Q.** For `O=C(Cn1ncccc1=O)Nc1ccc(C[C@@H]2CC[C@H]([C@H](O)c3ccccc3)N2)cn1` [Example 3, N-[5-({(2S, 5R)-5-[(R)-hydroxy(phenyl)methyl]pyrrolidin-2-yl}methyl)pyridin-2-yl]-2-(6-oxopyridazin-1(6H)-yl)acetamide], which EC50 [2] is on record?
**A.** 101 to 1000 nM

**Q.** Which EC50 [2] does the source give for `O=C(Cc1nnc(-c2ccccc2)[nH]1)Nc1ccc(C[C@@H]2CC[C@H]([C@H](O)c3ccccc3)N2)cn1` [Example 4, N-[5-([(2S, 5R)-5-[(R)-hydroxy(phenyl)methyl]pyrrolidin-2-yl}methyl)pyridin-2-yl]-2-(5-phenyl-4H-1,2,4-triazol-3-yl)acetamide] here?
**A.** 11 to 100 nM

**Q.** Which EC50 [1, 3] does the source give for `O=C(c1ccc(C[C@@H]2CC[C@H]([C@H](O)c3ccccc3)N2)cn1)N1CCC(c2nnnn2CC(F)(F)F)CC1` [Example 5, (R)-Phenyl-(2R,5S)-5-{[6-({4-[1-(2,2,2-trifluoroethyl)-1H-tetrazol-5-yl]piperidin-1-yl}carbonyl-pyridin-3-yl]methyl}pyrrolidin-2-yl)methanol] here?
**A.** 101 to 1000 nM

**Q.** For `O=C(c1ccc(C[C@@H]2CC[C@H]([C@H](O)c3ccccc3)N2)cn1)N1C[C@@H]2C(n3cnnn3)[C@@H]2C1` (stereo partly drawn) [Example 6, (R)-phenyl[(2R,5S)-5-[(6-{[(1R,5S,6S)-6-(1H-tetrazol-1-yl)-3-azabicyclo[3.1.0]hex-3yl]carbonyl}pyridin-3-yl)methyl]pyrrolidine-2-yl]methanol], which EC50 [1, 3] is on record?
**A.** 11 to 100 nM

**Q.** With `O=C(c1ccc(C[C@@H]2CC[C@H]([C@H](O)c3ccccc3)N2)cn1)N1CCN(Cc2ccccn2)CC1` [Example 7, (R)-phenyl[(2R,5S)-5-[(6-{[4-(pyridin-2-ylmethyl)piperazin-1-yl]carbonyl}pyridin-3-yl)methyl]pyrrolidin-2-yl]methanol] as the compound, how does the EC50 [1, 3] read?
**A.** 101 to 1000 nM

**Q.** With `O=C(c1ccc(C[C@@H]2CC[C@H]([C@H](O)c3ccccc3)N2)cn1)N1CCC2(CCOC2=O)CC1` [Example 8, 8-{[5-({(2S, 5R)-5-[(R)-hydroxy(phenyl)methyl]pyrrolidin-2-yl}methyl)pyridin-2-yl]carbonyl}-2-oxa-8-azaspiro[4.5]decan-1-one] as the compound, how does the EC50 [1, 4] read?
**A.** 11 to 100 nM

**Q.** Which EC50 [1, 4] does the source give for `Cn1nnnc1[C@H]1[C@@H]2CN(C(=O)c3ccc(C[C@@H]4CC[C@H]([C@H](O)c5ccccc5)N4)cn3)C[C@@H]21` [Example 9, (R)-{(2R, 5S)-5-[(6-{[6-(1-methyl-1H-tetrazol-5-yl)-3-azabicyclo[3.1.0]hex-3-yl]carbonyl}pyridin-3-yl)methyl]pyrrolidin-2-yl)(phenyl)methanol] here?
**A.** 11 to 100 nM

**Q.** Which EC50 [1, 4] does the source give for `O=C(c1ccc(C[C@@H]2CC[C@H]([C@H](O)c3ccccc3)N2)cn1)N1C[C@@H]2[C@H](C1)[C@H]2c1nnnn1CC(F)(F)F` [Example 10] here?
**A.** 11 to 100 nM

**Q.** For `O=C(c1ccc(C[C@@H]2CC[C@H]([C@H](O)c3ccccc3)N2)cn1)N1C[C@@H]2[C@H](C1)[C@H]2c1nnco1` [Example 11, (R)-{(2R, 5S)-5-[(6-{[6-(1,3,4-oxadiazol-2-yl)-3-azabicyclo[3.1.0]hex-3-yl]carbonyl}pyridin-3-yl)methyl]pyrrolidin-2-yl)(phenyl)methanol], which EC50 [1, 4] is on record?
**A.** 11 to 100 nM

**Q.** With `CCc1nnc([C@H]2[C@@H]3CN(C(=O)c4ccc(C[C@@H]5CC[C@H]([C@H](O)c6ccccc6)N5)cn4)C[C@@H]32)o1` [Example 12, (R)-{(2R, 5S)-5-[(6-{[6-(5-ethyl-1,3,4-oxadiazol-2-yl)-3-azabicyclo[3.1.0]hex-3-yl]carbonyl}pyridin-3-yl)methyl]pyrrolidin-2-yl)(phenyl)methanol] as the compound, how does the EC50 [1, 4] read?
**A.** 11 to 100 nM

**Q.** With `O=C(c1ccc(C[C@@H]2CC[C@H]([C@H](O)c3ccccc3)N2)cn1)N1C[C@@H]2[C@H](C1)[C@H]2c1nnc(-c2cnccn2)o1` [Example 13, (R)-phenyl{(2R, 5S)-5-[(6-{[6-(5-pyrazin-2-yl-1,3,4-oxadiazol-2-yl)-3-azabicyclo[3.1.0]hex-3-yl]carbonyl}pyridin-3-yl)methyl]pyrrolidin-2-yl)methanol] as the compound, how does the EC50 [1, 4] read?
**A.** < 10 nM

**Q.** With `O=C(c1ccc(C[C@@H]2CC[C@H]([C@H](O)c3ccccc3)N2)cn1)N1CCN(Cc2nnn(CC(F)(F)F)n2)CC1` [Example 14, (R)-phenyl[(2R, 5S)-5-({6-[(4-{[2-(2,2,2-trifluoroethyl)-2H-tetrazol-5-yl]methyl}piperazin-1-yl)carbonyl]pyridin-3-yl}methyl)pyrrolidin-2-yl]methanol] as the compound, how does the EC50 [1, 4] read?
**A.** 11 to 100 nM
